The values below come from patent publication EP0337731B1, “Peptide antibiotics” (ELI LILLY AND COMPANY, priority 1988, dated 1989).

This test deals with A54145.1, A54145.2, and A54145.3. The experiment in a line: Resistance to antibiotics, sensitivity discs on seeded ISP No. 2 agar plates. The class given is cell-based, Streptomyces fradiae. As for the experimental part: A54145.1, A54145.2, and A54145.3 had identical antibiotic-resistance patterns. The strains were resistant to lincomycin at 2 µg and penicillin G at 10 units. The strains were sensitive to bacitracin at 10 units, cephalothin at 30 µg, gentamicin at 10 µg, neomycin at 30 µg, oleandomycin at 15 µg, rifampin at 5 µg, streptomycin at 10 µg, tetracycline at 30 µg, tobramycin at 10 µg and vancomycin at 30 µg.

On to `CC(=O)OCC1=C(C(=O)O)N2C(=O)[C@@H](NC(=O)Cc3cccs3)[C@H]2SC1` [cephalothin], for which, where the note is “disc at 30 µg”, the antibiotic-resistance pattern result is “sensitive”.

`CCC[C@@H]1C[C@@H](C(=O)N[C@@H]([C@H]2O[C@H](SC)[C@H](O)[C@@H](O)[C@H]2O)[C@@H](C)O)N(C)C1` [lincomycin]: the antibiotic-resistance pattern entry (disc at 2 µg) is given as “resistant”.

As to `CO[C@H]1C[C@H](O[C@H]2[C@H](C)[C@@H](O[C@@H]3O[C@H](C)C[C@H](N(C)C)[C@H]3O)[C@@H](C)C[C@@]3(CO3)C(=O)[C@H](C)[C@@H](O)[C@@H](C)[C@@H](C)OC(=O)[C@@H]2C)O[C@@H](C)[C@@H]1O` [oleandomycin], the antibiotic-resistance pattern result (disc at 15 µg) was “sensitive”.

Take `CC1(C)S[C@@H]2[C@H](NC(=O)Cc3ccccc3)C(=O)N2[C@H]1C(=O)O` [penicillin G]: the antibiotic-resistance pattern result (disc at 10 units) is “resistant”.

For `CO[C@H]1/C=C/O[C@@]2(C)Oc3c(C)c(O)c4c(O)c(c(/C=N/N5CCN(C)CC5)c(O)c4c3C2=O)NC(=O)/C(C)=C\C=C\[C@H](C)[C@H](O)[C@@H](C)[C@@H](O)[C@@H](C)[C@H](OC(C)=O)[C@@H]1C` [rifampin], for the setting “disc at 5 µg”, the antibiotic-resistance pattern entry is “sensitive”.

Turning to `[H]/N=C(/N)N[C@H]1[C@H](O)[C@@H](O)[C@H](O[C@@H]2O[C@@H](C)[C@](O)(C=O)[C@H]2O[C@@H]2O[C@@H](CO)[C@H](O)[C@@H](O)[C@@H]2NC)[C@@H](N/C(N)=N\[H])[C@@H]1O` [streptomycin], the antibiotic-resistance pattern entry (disc at 10 µg) is “sensitive”.

For `NC[C@H]1O[C@H](O[C@H]2[C@H](O)[C@@H](O[C@H]3O[C@H](CO)[C@@H](O)[C@H](N)[C@H]3O)[C@H](N)C[C@@H]2N)[C@H](N)C[C@@H]1O` [tobramycin], the antibiotic-resistance pattern entry (disc at 10 µg) is listed as “sensitive”.

As for `CN[C@H](CC(C)C)C(=O)N[C@H]1C(=O)N[C@@H](CC(N)=O)C(=O)N[C@H]2C(=O)N[C@H]3C(=O)N[C@H](C(=O)N[C@H](C(=O)O)c4cc(O)cc(O)c4-c4cc3ccc4O)[C@H](O)c3ccc(c(Cl)c3)Oc3cc2cc(c3O[C@@H]2O[C@H](CO)[C@@H](O)[C@H](O)[C@H]2O[C@H]2C[C@](C)(N)[C@H](O)[C@H](C)O2)Oc2ccc(cc2Cl)[C@H]1O` [vancomycin], the antibiotic-resistance pattern entry (disc at 30 µg) is “sensitive”.

bacitracin: the antibiotic-resistance pattern entry (disc at 10 units) is given as “sensitive”.

With gentamicin, the antibiotic-resistance pattern entry (disc at 10 µg) is reported as “sensitive”.

For the compound neomycin, the antibiotic-resistance pattern result (disc at 30 µg) is “sensitive”.
